According to the kinase profiling compilation of Christmann-Franck et al. (2016):

Legend:
Assay in all cases: KINOMEscan competition binding
Settings in all cases: compound 10.0 µM
[1] = biological target: IRAK3 (human) (UniProt Q9Y616)
[2] = biological target: STK33 (human) (UniProt Q9BYT3)
[3] = biological target: ERBB2 (human) (UniProt P04626)
[4] = biological target: INSRR (human) (UniProt P14616)
[5] = biological target: RPS6KA4 KD1 (human) (UniProt O75676)
[6] = biological target: CaMK1 (human) (UniProt Q14012)
[7] = biological target: NTRK2 (human) (UniProt Q16620)
Sequence of NTRK2 (human) (Q16620 whole entry, looked up): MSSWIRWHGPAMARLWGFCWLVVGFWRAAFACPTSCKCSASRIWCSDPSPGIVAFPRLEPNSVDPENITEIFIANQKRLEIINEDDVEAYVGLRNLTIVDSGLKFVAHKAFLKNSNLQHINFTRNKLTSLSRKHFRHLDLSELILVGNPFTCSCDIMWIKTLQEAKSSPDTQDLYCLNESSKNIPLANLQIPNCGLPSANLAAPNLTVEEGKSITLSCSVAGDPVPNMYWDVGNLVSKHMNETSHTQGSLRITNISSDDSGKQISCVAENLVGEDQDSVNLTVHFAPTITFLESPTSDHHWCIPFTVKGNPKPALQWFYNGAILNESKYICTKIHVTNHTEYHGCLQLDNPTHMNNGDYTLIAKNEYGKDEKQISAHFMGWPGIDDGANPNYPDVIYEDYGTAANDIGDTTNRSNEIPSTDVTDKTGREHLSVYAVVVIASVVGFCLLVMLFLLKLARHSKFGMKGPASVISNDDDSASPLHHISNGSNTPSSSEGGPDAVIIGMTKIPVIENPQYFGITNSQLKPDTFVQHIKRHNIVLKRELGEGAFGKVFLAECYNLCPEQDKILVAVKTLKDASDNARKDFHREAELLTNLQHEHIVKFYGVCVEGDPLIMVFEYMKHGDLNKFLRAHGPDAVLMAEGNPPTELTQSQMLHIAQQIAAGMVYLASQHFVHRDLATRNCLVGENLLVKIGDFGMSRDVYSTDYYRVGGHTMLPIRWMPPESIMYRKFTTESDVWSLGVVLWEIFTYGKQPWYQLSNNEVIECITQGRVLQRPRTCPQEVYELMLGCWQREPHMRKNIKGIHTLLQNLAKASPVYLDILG

[8] = biological target: DYRK2 (human) (UniProt Q92630)
[9] = biological target: MAP3K7 (human) (UniProt O43318)
Sequence of MAP3K7 (human) (O43318 whole entry, looked up): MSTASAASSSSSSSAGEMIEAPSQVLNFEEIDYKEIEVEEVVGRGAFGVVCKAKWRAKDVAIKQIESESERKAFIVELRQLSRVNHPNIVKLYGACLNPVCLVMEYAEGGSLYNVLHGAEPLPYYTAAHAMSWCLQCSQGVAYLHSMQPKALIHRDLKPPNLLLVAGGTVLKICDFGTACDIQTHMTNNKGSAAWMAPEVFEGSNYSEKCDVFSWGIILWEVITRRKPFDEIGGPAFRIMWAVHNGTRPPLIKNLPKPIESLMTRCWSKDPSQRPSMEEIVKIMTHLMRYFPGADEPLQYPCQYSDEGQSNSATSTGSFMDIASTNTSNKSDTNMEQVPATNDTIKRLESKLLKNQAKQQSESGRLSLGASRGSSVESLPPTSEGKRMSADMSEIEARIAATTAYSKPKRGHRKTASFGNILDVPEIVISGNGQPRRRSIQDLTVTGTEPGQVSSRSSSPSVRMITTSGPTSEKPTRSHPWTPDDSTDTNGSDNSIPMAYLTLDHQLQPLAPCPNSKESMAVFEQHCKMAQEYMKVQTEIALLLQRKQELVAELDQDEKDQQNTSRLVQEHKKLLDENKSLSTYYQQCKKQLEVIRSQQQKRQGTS

[10] = biological target: ABL2 (human) (UniProt P42684)
[11] = biological target: BTK (human) (UniProt Q06187)
[12] = biological target: TAOK1 (human) (UniProt Q7L7X3)
[13] = biological target: ANKK1 (human) (UniProt Q8NFD2)
Sequence of ANKK1 (human) (Q8NFD2 whole entry, looked up): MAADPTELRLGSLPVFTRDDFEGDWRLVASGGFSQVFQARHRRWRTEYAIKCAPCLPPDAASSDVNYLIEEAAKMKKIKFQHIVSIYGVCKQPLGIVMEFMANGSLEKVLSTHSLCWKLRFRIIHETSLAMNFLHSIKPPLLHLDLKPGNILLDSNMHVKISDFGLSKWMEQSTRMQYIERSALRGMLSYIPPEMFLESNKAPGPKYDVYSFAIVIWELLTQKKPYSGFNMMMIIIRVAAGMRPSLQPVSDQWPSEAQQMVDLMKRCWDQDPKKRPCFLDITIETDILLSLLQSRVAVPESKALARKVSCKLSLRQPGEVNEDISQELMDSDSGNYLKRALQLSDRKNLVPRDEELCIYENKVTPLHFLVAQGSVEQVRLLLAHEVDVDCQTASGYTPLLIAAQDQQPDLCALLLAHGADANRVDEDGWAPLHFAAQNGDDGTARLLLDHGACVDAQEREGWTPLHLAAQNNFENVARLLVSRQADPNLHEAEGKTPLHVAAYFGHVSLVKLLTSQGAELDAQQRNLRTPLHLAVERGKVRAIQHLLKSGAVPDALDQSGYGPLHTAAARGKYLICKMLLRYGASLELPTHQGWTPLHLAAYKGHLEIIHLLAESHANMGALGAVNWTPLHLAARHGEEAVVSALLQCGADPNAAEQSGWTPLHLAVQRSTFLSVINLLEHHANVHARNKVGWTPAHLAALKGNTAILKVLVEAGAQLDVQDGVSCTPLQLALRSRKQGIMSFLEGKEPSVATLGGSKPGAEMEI

[14] = biological target: MAP2K5 (human) (UniProt Q13163)
Sequence of MAP2K5 (human) (Q13163 whole entry, looked up): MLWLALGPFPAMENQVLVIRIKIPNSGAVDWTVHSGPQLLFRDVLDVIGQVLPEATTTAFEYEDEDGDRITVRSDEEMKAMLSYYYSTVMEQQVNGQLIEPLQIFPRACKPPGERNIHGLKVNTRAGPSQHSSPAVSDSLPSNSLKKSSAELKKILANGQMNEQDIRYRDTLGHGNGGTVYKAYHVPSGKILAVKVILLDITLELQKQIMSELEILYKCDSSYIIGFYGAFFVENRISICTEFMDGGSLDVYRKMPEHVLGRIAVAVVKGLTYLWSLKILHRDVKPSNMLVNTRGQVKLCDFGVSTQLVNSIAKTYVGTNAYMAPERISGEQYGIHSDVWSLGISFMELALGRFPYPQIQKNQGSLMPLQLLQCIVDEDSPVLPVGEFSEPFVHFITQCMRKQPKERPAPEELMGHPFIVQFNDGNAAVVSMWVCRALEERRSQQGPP

[15] = biological target: CDK15 (human) (UniProt Q96Q40)
[16] = biological target: TNIK (human) (UniProt Q9UKE5)
[17] = biological target: CLK4 (human) (UniProt Q9HAZ1)
Sequence of CLK4 (human) (Q9HAZ1 whole entry, looked up): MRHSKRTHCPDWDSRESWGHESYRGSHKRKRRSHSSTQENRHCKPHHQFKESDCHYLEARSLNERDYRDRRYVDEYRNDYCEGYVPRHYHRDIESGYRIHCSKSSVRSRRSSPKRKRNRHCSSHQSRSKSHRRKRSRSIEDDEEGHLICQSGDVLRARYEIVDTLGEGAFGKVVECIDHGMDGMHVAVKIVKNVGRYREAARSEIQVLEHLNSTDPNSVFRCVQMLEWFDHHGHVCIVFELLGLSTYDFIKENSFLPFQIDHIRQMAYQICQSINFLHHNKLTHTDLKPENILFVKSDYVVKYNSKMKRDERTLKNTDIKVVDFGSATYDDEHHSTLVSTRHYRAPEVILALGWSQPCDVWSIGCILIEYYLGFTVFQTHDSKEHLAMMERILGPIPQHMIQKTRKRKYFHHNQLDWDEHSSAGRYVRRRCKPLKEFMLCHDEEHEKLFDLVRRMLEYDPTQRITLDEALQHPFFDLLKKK

[18] = biological target: TSSK1B (human) (UniProt Q9BXA7)
Sequence of TSSK1B (human) (Q9BXA7 whole entry, looked up): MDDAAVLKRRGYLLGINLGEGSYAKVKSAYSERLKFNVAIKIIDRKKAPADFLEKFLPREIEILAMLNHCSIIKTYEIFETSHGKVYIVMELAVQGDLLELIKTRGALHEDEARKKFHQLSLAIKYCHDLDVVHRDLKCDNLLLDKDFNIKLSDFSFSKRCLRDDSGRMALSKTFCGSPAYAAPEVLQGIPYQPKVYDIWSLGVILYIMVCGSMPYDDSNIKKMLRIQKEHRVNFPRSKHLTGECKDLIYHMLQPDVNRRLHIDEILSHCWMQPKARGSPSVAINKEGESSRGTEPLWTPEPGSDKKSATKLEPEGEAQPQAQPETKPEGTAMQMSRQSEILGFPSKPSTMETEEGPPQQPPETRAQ

[19] = biological target: DCLK3 (human) (UniProt Q9C098)
[20] = biological target: FES (human) (UniProt P07332)
[21] = biological target: TESK1 (human) (UniProt Q15569)
[22] = biological target: HUNK (human) (UniProt P57058)
Sequence of HUNK (human) (P57058 whole entry, looked up): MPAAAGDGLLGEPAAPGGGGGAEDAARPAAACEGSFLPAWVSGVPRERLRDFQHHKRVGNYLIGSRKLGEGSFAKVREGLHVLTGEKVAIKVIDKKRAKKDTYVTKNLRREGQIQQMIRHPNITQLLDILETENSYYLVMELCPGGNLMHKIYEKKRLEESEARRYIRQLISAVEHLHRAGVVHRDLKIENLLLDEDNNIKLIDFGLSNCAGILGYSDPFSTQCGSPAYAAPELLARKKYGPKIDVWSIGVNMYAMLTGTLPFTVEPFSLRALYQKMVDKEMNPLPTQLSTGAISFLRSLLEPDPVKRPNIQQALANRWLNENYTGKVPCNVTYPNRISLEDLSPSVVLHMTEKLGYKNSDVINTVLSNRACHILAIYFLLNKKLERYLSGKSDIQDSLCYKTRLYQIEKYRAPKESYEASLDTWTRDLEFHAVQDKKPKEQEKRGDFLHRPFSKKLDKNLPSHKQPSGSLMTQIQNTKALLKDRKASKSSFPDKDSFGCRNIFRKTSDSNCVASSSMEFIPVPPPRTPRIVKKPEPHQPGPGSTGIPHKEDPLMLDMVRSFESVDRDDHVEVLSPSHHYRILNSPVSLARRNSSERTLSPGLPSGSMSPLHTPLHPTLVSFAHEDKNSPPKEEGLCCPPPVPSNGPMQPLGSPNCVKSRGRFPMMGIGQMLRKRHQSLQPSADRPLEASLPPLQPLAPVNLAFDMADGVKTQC

[23] = biological target: BMPR1A (human) (UniProt P36894)
[24] = system: PIK3CA (human), P42336 [M1043I]
[25] = biological target: SIK3 (human) (UniProt Q9Y2K2)
[26] = biological target: ACVR2B (human) (UniProt Q13705)
Sequence of ACVR2B (human) (Q13705 whole entry, looked up): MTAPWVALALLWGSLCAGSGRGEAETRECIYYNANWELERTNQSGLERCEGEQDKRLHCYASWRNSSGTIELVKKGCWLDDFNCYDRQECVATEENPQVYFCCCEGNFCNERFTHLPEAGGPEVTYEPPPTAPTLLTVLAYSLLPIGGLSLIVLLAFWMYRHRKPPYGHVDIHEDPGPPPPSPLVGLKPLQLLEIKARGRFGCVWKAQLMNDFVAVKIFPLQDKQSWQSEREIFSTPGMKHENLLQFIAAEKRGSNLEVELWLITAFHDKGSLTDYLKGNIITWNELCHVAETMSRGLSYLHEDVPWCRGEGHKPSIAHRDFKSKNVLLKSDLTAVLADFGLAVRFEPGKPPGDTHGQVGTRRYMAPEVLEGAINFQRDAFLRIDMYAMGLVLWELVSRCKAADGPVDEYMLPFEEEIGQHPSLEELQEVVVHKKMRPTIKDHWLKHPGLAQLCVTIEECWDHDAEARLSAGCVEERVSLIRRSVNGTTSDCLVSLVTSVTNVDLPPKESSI

[27] = biological target: RIPK1 (human) (UniProt Q13546)
[28] = biological target: FGFR2 (human) (UniProt P21802)
[29] = biological target: EPHB6 (human) (UniProt O15197)
[30] = biological target: IKBKE (human) (UniProt Q14164)
[31] = biological target: PHKG2 (human) (UniProt P15735)
[32] = biological target: MYLK4 (human) (UniProt Q86YV6)
[33] = biological target: TNK1 (human) (UniProt Q13470)
[34] = biological target: MAP3K11 (human) (UniProt Q16584)
[35] = biological target: SLK (human) (UniProt Q9H2G2)
[36] = biological target: GSK3B (human) (UniProt P49841)
[37] = biological target: CDK8 (human) (UniProt P49336)
[38] = biological target: JAK1 JH2 pseudokinase (human) (UniProt P23458)
[39] = biological target: PRKG1 (human) (UniProt Q13976)

Structure (SMILES) | kinase still bound, per cent of control [1] [%] | kinase still bound, per cent of control [2] [%] | kinase still bound, per cent of control [3] [%] | kinase still bound, per cent of control [4] [%] | kinase still bound, per cent of control [5] [%] | kinase still bound, per cent of control [6] [%] | kinase still bound, per cent of control [7] [%] | kinase still bound, per cent of control [8] [%] | kinase still bound, per cent of control [9] [%] | kinase still bound, per cent of control [12] [%] | kinase still bound, per cent of control [13] [%] | kinase still bound, per cent of control [14] [%] | kinase still bound, per cent of control [15] [%] | kinase still bound, per cent of control [16] [%] | kinase still bound, per cent of control [17] [%] | kinase still bound, per cent of control [18] [%] | kinase still bound, per cent of control [19] [%] | kinase still bound, per cent of control [20] [%] | kinase still bound, per cent of control [21] [%] | kinase still bound, per cent of control [22] [%] | other results
CC(=O)c1c(C)c2cnc(Nc3ccc(N4CCNCC4)cn3)nc2n(C2CCCC2)c1=O | 36 | 24 | 79 | 98 | 75 | 35 | 12 | 5.5 | 7.9 | 11 | 79 | 62 | 39 | 23 | 2 | 8 | 9.6 | 80 | 99 | 77 | kinase still bound, per cent of control [10]: 97%; kinase still bound, per cent of control [11]: 13%; kinase still bound, per cent of control [23]: 42%; kinase still bound, per cent of control [24]: 68%; kinase still bound, per cent of control [25]: 100%; kinase still bound, per cent of control [26]: 100%; kinase still bound, per cent of control [27]: 65%; kinase still bound, per cent of control [28]: 95%; kinase still bound, per cent of control [29]: 65%; kinase still bound, per cent of control [30]: 22%; kinase still bound, per cent of control [31]: 5%; kinase still bound, per cent of control [32]: 35%; kinase still bound, per cent of control [33]: 61%
CCN(CCO)CCCOc1ccc2c(Nc3cc(CC(=O)Nc4cccc(F)c4)[nH]n3)ncnc2c1 | 37 | 51 | 13 | 76 | 73 | 69 | 8.2 | 73 | 16 | 59 | 11 | 0.4 | 88 | 52 | 36 | 87 | 86 | 100 | 100 | 94 | kinase still bound, per cent of control [34]: 100%; kinase still bound, per cent of control [35]: 64%; kinase still bound, per cent of control [36]: 100%; kinase still bound, per cent of control [37]: 75%; kinase still bound, per cent of control [11]: 7.2%; kinase still bound, per cent of control [38]: 100%; kinase still bound, per cent of control [23]: 29%; kinase still bound, per cent of control [24]: 100%; kinase still bound, per cent of control [25]: 100%; kinase still bound, per cent of control [26]: 100%; kinase still bound, per cent of control [27]: 100%; kinase still bound, per cent of control [28]: 80%; kinase still bound, per cent of control [29]: 0.8%; kinase still bound, per cent of control [30]: 51%; kinase still bound, per cent of control [31]: 81%; kinase still bound, per cent of control [33]: 86%
CCc1nc(-c2cccc(C)c2)c(-c2ccnc(NC(=O)c3ccccc3)c2)s1 | 84 | 97 | 43 | 100 | 100 | 85 | 100 | 99 | 64 | 72 | 83 | 5.2 | 95 | 5.5 | 93 | 87 | 90 | 97 | 81 | 15 | kinase still bound, per cent of control [34]: 70%; kinase still bound, per cent of control [35]: 41%; kinase still bound, per cent of control [36]: 60%; kinase still bound, per cent of control [37]: 88%; kinase still bound, per cent of control [10]: 47%; kinase still bound, per cent of control [39]: 100%; kinase still bound, per cent of control [38]: 70%; kinase still bound, per cent of control [23]: 14%; kinase still bound, per cent of control [24]: 95%; kinase still bound, per cent of control [25]: 94%; kinase still bound, per cent of control [26]: 17%; kinase still bound, per cent of control [27]: 95%; kinase still bound, per cent of control [28]: 71%; kinase still bound, per cent of control [29]: 16%; kinase still bound, per cent of control [30]: 100%; kinase still bound, per cent of control [31]: 76%; kinase still bound, per cent of control [32]: 100%; kinase still bound, per cent of control [33]: 88%
